Reference: patent US8318769B2, “Substituted sulfonamide compounds” (Gruenethal GmbH, priority 2008, dated 2012)

Each molecule was assayed against T1, bradykinin 1 receptor (B1R) of the rat (Rattus norvegicus, UniProt P97583) (assay: FLIPR Ca2+ assay, B1R antagonism, rat). Conditions: 10 μM test substance; CHO K1 cells with rat B1R gene (rB1R cells); Des-Arg9-bradykinin at EC80; % inhibition compared with the maximum achievable inhibition; 10 µM.
T1 construct: expressed in transfected cells
T1 sequence (P97583 1-337): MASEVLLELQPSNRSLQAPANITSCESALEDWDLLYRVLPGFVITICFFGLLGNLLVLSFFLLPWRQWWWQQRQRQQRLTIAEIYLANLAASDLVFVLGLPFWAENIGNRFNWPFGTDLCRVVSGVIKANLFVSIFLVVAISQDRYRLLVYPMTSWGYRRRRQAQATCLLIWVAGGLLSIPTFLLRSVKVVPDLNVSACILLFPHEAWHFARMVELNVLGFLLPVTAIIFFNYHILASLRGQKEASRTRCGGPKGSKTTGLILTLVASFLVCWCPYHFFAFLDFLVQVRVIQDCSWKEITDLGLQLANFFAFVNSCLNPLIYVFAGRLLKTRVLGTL
Format: cell-based
Description: The agonistic or antagonistic action of substances can be quantified on the bradykinin 1 receptor (B1R) of the human and rat species with ectopically expressing cell lines (CHO K1 cells) and with the aid of a Ca^2+-sensitive dyestuff (Fluo-4) in a fluorescent imaging plate reader (FLIPR). The figure in % activation is based on the Ca^2+ signal after addition of Lys-Des-Arg^9-bradykinin (0.5 nM) or Des-Arg^9-bradykinin (100 nM). Antagonists lead to a suppression of the Ca^2+ inflow after addition of the agonist. % inhibition compared with the maximum achievable inhibition is stated.
The agonistic or antagonistic action of substances can be determined on the bradykinin 1 receptor (B1R) of the human and rat species with the following assay. In accordance with this assay, the Ca^2+ inflow through the channel is quantified with the aid of a Ca^2+-sensitive dyestuff (type Fluo-4, Molecular Probes Europe BV, Leiden, Holland) in a fluorescent imaging plate reader (FLIPR, Molecular Devices, Sunnyvale, USA).
Chinese hamster ovary cells (CHO K1 cells) transfected stably with the human B1R gene (hB1R cells) or the B1R gene of the rat (rB1R cells) are used. For functional studies, these cells are plated out on black 96-well plates with a clear base (BD Biosciences, Heidelberg, Germany or Greiner, Frickenhausen, Germany) in a density of 20,000-35,000 cells/well. The cells are left overnight at 37° C. and 5% CO2 in culture medium (hB1R cells: Nutrient Mixture Ham's F12, Gibco Invitrogen GmbH, Karlsruhe, Germany or DMEM, Sigma-Aldrich, Taufkirchen, Germany; rB1R cells: D-MEM/F12, Gibco Invitrogen GmbH, Karlsruhe, Germany) with 10 vol. % FBS (foetal bovine serum, Gibco Invitrogen GmbH, Karlsruhe, Germany or PAN Biotech GmbH, Aidenbach, Germany).
On the following day, the cells are loaded for 60 min at 37° C. with 2.13 μM Fluo-4 (Molecular Probes Europe BV, Leiden, Holland) in HBSS buffer (Hank's buffered saline solution, Gibco Invitrogen GmbH, Karlsruhe, Germany) with 2.5 mM probenecid (Sigma-Aldrich, Taufkirchen, Germany) and 10 mM HEPES (Sigma-Aldrich, Taufkirchen, Germany). The plates are then washed 2× with HBSS buffer, and HBSS buffer which additionally contains 0.1% BSA (bovine serum albumin; Sigma-Aldrich, Taufkirchen, Germany), 5.6 mM glucose and 0.05% gelatine (Merck KGaA, Darmstadt, Germany) is added. After a further incubation of 20 minutes at room temperature, the plates are inserted into the FLIPR for the Ca^2+ measurement.
Alternatively, the plates are washed with buffer A (15 mM HEPES, 80 mM NaCl, 5 mM KCl, 1.2 mM CaCl2, 0.7 mM MgSO4, 2 g/l glucose, 2.5 mM probenecid), buffer A is added and the plates are loaded with 2.5 μM Fluo-4 and 0.025% Pluronic F127 (Sigma-Aldrich, Taufkirchen, Germany). Thereafter, the cells are washed 2× with buffer A and incubated for 30 minutes with buffer A, which additionally contains 0.05% BSA and 0.05% gelatine, at room temperature and thereafter inserted into the FLIPR for the Ca^2+ measurement.
The Ca^2+-dependent fluorescence is measured here before and after addition of substances (λex=488 nm, λem=540 nm). Quantification is by measurement of the highest fluorescence intensity (FC, fluorescence counts) over time.
The FLIPR protocol consists of 2 additions of substance. Test substances (10 μM) are first pipetted on to the cells and the Ca^2+ inflow is compared with the control (hB1R: Lys-Des-Arg^9-bradykinin >=50 nM; rB1R: Des-Arg^9-bradykinin 10 μM). This gives the figure in % activation based on the Ca^2+ signal after addition of Lys-Des-Arg^9-bradykinin (>=50 nM) or Des-Arg^9-bradykinin (10 μM).
After incubation for 10-20 minutes, Lys-Des-Arg^9-bradykinin (hB1R) or Des-Arg^9-bradykinin (rB1R) in the concentration of the EC80 is applied and the inflow of Ca^2+ is likewise determined. Antagonists lead to a suppression of the Ca^2+ inflow. % inhibition compared with the maximum achievable inhibition is calculated. […]

B1R antagonism, rat [10 μM] % inhibition [%]	SMILES
98	COc1cc(C)c(S(=O)(=O)N2CCCCC2CCOCC(=O)N2CCC(OCCN3CCCC3)(c3cccc(F)c3)CC2)c(C)c1 (centres unmarked) [Example 126, 1-[4-(3-fluorophenyl)-4-(2-pyrrolidin-1-yl-ethoxy)-piperidin-1-yl]-2-[2-[1-[(4-methoxy-2,6-dimethyl-phenyl)sulfonyl]-piperidin-2-yl]-ethoxy]-ethanone]
83	O=C(COCC1CCc2ccccc2N1S(=O)(=O)c1ccc2ccccc2c1)N1CCC(OCCN2CCCC2)(c2cccnc2)CC1 (centres unmarked) [Example 130, 2-[[1-(naphthalen-2-ylsulfonyl)-1,2,3,4-tetrahydro-quinolin-2-yl]-methoxy]-1-[4-pyridin-3-yl-4-(2-pyrrolidin-1-yl-ethoxy)-piperidin-1-yl]-ethanone]
98	COc1cc(C)c(S(=O)(=O)N2CCCCC2CCOCC(=O)N2CCC(OCCN3CCCC3)(c3cccnc3)CC2)c(C)c1 (centres unmarked) [Example 124, 2-[2-[1-[(4-methoxy-2,6-dimethyl-phenyl)sulfonyl]-piperidin-2-yl]-ethoxy]-1-[4-pyridin-3-yl-4-(2-pyrrolidin-1-yl-ethoxy)-piperidin-1-yl]-ethanone]

Same assay, conditions: CHO-K1, 10 μM test substance; CHO K1 cells with rat B1R gene (rB1R cells); Des-Arg9-bradykinin at EC80; % inhibition compared with the maximum achievable inhibition; read-out: B1R antagonism, rat [10 μM] % inhibition

SMILES	inhibition at 10 µM [%]
O=C(CCCC1CCCCN1S(=O)(=O)c1ccc2ccccc2c1)N1CCC(OCCN2CCCC2)(c2cccc(F)c2)CC1 (centres unmarked) [Example 96, 1-[4-(3-fluorophenyl)-4-(2-pyrrolidin-1-yl-ethoxy)-piperidin-1-yl]-4-[1-(naphthalen-2-ylsulfonyl)-piperidin-2-yl]-butan-1-one]	79
O=C(CC(NS(=O)(=O)c1ccc2ccccc2c1)c1ccccc1)N1CCC(OCCN2CCCC2)(c2ccc(C(F)(F)F)cc2)CC1 (centres unmarked) [Example 77, N-[3-oxo-1-phenyl-3-[4-(2-pyrrolidin-1-yl-ethoxy)-4-[4-(trifluoromethyl)-phenyl]-piperidin-1-yl]-propyl]-naphthalene-2-sulfonic acid amide]	94
Cc1cccc(Cl)c1S(=O)(=O)N1CCCCC1COCC(=O)N1CCC(OCCN2CCCC2)(c2ccc(C(F)(F)F)cc2)CC1 (centres unmarked) [Example 69, 2-[[1-[(2-chloro-6-methyl-phenyl)sulfonyl]-piperidin-2-yl]-methoxy]-1-[4-(2-pyrrolidin-1-yl-ethoxy)-4-[4-(trifluoromethyl)-phenyl]-piperidin-1-yl]-ethanone]	97
Cc1cccc(Cl)c1S(=O)(=O)N(CCOCC(=O)N1CCC(OCCN2CCCC2)(c2ccc(F)cc2)CC1)C1CC1 [Example 70, 2-chloro-N-cyclopropyl-N-[2-[2-[4-(4-fluorophenyl)-4-(2-pyrrolidin-1-yl-ethoxy)-piperidin-1-yl]-2-oxo-ethoxy]-ethyl]-6-methyl-benzenesulfonic acid amide]	98
O=C(CCCC1CCCCN1S(=O)(=O)c1ccccc1C(F)(F)F)N1CCC(OCCN2CCCC2)(c2cccc(F)c2)CC1 (centres unmarked) [Example 86, 1-[4-(3-fluorophenyl)-4-(2-pyrrolidin-1-yl-ethoxy)-piperidin-1-yl]-4-[1-[[2-(trifluoromethyl)-phenyl]sulfonyl]-piperidin-2-yl]-butan-1-one]	102
O=C(CC(NS(=O)(=O)c1ccc2ccccc2c1)c1ccccc1)N1CCC(OCCN2CCCC2)(c2ccc(F)cc2)CC1 (centres unmarked) [Example 76, N-[3-[4-(4-fluorophenyl)-4-(2-pyrrolidin-1-yl-ethoxy)-piperidin-1-yl]-3-oxo-1-phenyl-propyl]-naphthalene-2-sulfonic acid amide]	90
COc1cc(C)c(S(=O)(=O)N2CCCCC2COCC(=O)N2CCC(OCCN3CCCC3)(c3ccc(C(F)(F)F)cc3)CC2)c(C)c1 (centres unmarked) [Example 65, 2-[[1-[(4-methoxy-2,6-dimethyl-phenyl)sulfonyl]-piperidin-2-yl]-methoxy]-1-[4-(2-pyrrolidin-1-yl-ethoxy)-4-[4-(trifluoromethyl)-phenyl]-piperidin-1-yl]-ethanone]	96

Continued, values first:

inhibition at 10 µM [%]	SMILES
44	O=C(COCC1CCc2ccccc2N1S(=O)(=O)c1ccc2ccccc2c1)N1CCC(OCCN2CCCC2)(c2cccc(F)c2)CC1 (centres unmarked) [Example 131, 1-[4-(3-fluorophenyl)-4-(2-pyrrolidin-1-yl-ethoxy)-piperidin-1-yl]-2-[[1-(naphthalen-2-ylsulfonyl)-1,2,3,4-tetrahydro-quinolin-2-yl]-methoxy]-ethanone]
92	O=C(COCC1CCc2ccccc2N1S(=O)(=O)c1ccc2ccccc2c1)N1CCC(OCCN2CCCC2)(c2cccnc2)CC1 (centres unmarked) [Example 129, 2-[[1-(naphthalen-2-ylsulfonyl)-1,2,3,4-tetrahydro-quinolin-2-yl]-methoxy]-1-[4-pyridin-3-yl-4-(2-pyrrolidin-1-yl-ethoxy)-piperidin-1-yl]-ethanone]
96	Cc1cc(S(=O)(=O)N2CCCCC2CCC(=O)N2CCC(OCCN3CCCC3)(c3ccc(C(F)(F)F)cc3)CC2)c(C)cc1Cl (centres unmarked) [Example 75, 3-[1-[(4-chloro-2,5-dimethyl-phenyl)sulfonyl]-piperidin-2-yl]-1-[4-(2-pyrrolidin-1-yl-ethoxy)-4-[4-(trifluoromethyl)-phenyl]-piperidin-1-yl]-propan-1-one]
98	COc1cc(C)c(S(=O)(=O)N(CCOCC(=O)N2CCC(OCCN3CCCC3)(c3ccc(C(F)(F)F)cc3)CC2)C2CC2)c(C)c1 [Example 67, N-cyclopropyl-4-methoxy-2,6-dimethyl-N-[2-[2-oxo-2-[4-(2-pyrrolidin-1-yl-ethoxy)-4-[4-(trifluoromethyl)-phenyl]-piperidin-1-yl]-ethoxy]-ethyl]-benzenesulfonic acid amide]
95	Cc1cccc(Cl)c1S(=O)(=O)N(CCOCC(=O)N1CCC(OCCN2CCCC2)(c2ccc(C(F)(F)F)cc2)CC1)C1CC1 [Example 71, 2-chloro-N-cyclopropyl-6-methyl-N-[2-[2-oxo-2-[4-(2-pyrrolidin-1-yl-ethoxy)-4-[4-(trifluoromethyl)-phenyl]-piperidin-1-yl]-ethoxy]-ethyl]-benzenesulfonic acid amide]
96	COc1cc(C)c(S(=O)(=O)N2CCCCC2CCOCC(=O)N2CCC(OCCN3CCCC3)(c3cccnc3)CC2)c(C)c1 (centres unmarked) [Example 123, 2-[2-[1-[(4-methoxy-2,6-dimethyl-phenyl)sulfonyl]-piperidin-2-yl]-ethoxy]-1-[4-pyridin-3-yl-4-(2-pyrrolidin-1-yl-ethoxy)-piperidin-1-yl]-ethanone]
49	CN(CCCC(=O)N1CCC(OCCN2CCCC2)(c2cccc(F)c2)CC1)S(=O)(=O)c1cccc(C(F)(F)F)c1 [Example 127, N-[4-[4-(3-fluorophenyl)-4-(2-pyrrolidin-1-yl-ethoxy)-piperidin-1-yl]-4-oxo-butyl]-N-methyl-3-(trifluoromethyl)-benzenesulfonic acid amide]
